Assay results published in patent publication US20250129370A1, “METHOD FOR REDUCING HEPATIC TRIGLYCERIDES” (ADAERATA, LIMITED PARTNERSHIP, priority 2022, published 2025).
*: point of attachment. Decanoyl = CCCCCCCCCC(=O)*; CH2Cl = ClC*

Assays:
[1] = tested on: Mouse FL38B hepatocyte cells; assay: Lipid droplet accumulation in oleic acid-treated mouse hepatocyte cells; format: cell-based
Protocol: FIGS. 37A-E: Comparison of various ASOs and vitamin E on lipid droplet accumulation in mouse FL38B hepatocytes. (FIG. 37A) Immunocytochemical analysis of mouse FL38B hepatocyte cells incubated for 48 h with oleic acid in the presence of either fluorescent mouse mASO-1, mASO-2 or mASO-7 (not shown) or α-tocopherol (vitamin E) (arrows pointing towards transfected cells, red staining indicate lipid droplets). (FIG. 37B) Quantitative analysis of results expressed in bar graph. (FIGS. 37C-D). The effect of eight ASOs on Pcsk7 mRNA levels as measured by quantitative PCR (qPCR). The experiment was repeated two independent times. *p<0.05 (FIG. 37A) The effect of mASO-1, mASO-2, mASO-7 and Vitamin E on reduction of accumulation of fluorescent triglycerides in cells as estimated by FACS measurement of lipid droplets (LD) by LipidTox™ staining. (FIG. 37E). modifications of ASO by trivalent linkage to N-acetyl-Galactosamine ([…]).
The effect of eight ASOs on Pcsk7 mRNA levels was measured by quantitative PCR (qPCR) (FIG. 37C). Mouse FL38B hepatocyte cells were incubated for 48 h with oleic acid in the presence of either fluorescent (green) mouse mASO-1, mASO-7 or α-tocopherol (vitamin E). […] (FIGS. 37B-37D). Mouse FL38B hepatocyte cells were plated on day 1, ASOs were added on day 2, the media was replaced on day 3 and RNA was extracted on day 4. […]

[2] = tested on: mice fed a HFFC diet; assay: Liver lipid droplets and histopathology in mice recovering from HFFC diet; format: in vivo, mouse; conditions: after 8 weeks recovery and treatment
Excerpt: FIGS. 39A-D (FIG. 39A) Upper panels—Oil red 0 staining of liver sections control (no treatment), and ASO-2, ASO-7 and α-tocopherol treated mice. Lower panels; Total area of LDs, mean area of LD and LD number in non treated mice or in mice treated with GalNac-ASO-7, GalNac-ASO-2 or α-tocopherol. (FIG. 39B) Liver morphology and fat accumulation measured in terms of liver inflammation, hepatocyte ballooning and steatosis grade in non treated mice or in mice treated with GalNac-ASO-7, GalNac-ASO-2 or α-tocopherol. (FIG. 39C) Extent of fibrosis measured by Sirius red staining in non treated mice or in mice treated with GalNac-ASO-7, GalNac-ASO-2 or α-tocopherol. […]
Eight ASOs against mouse Pcsk7 were tested in mouse FL38B hepatocytes and the best ones, namely ASO2 and ASO7, were modified (FIG. 37D) with covalent linkages to trivalent N-acetyl-Galactosamine (GalNac) residues (FIG. 37E). […] Mice were next injected with 5 mg/kg of either GalNac-ASO7 and GalNac-ASO-2, twice a week for 1 month, whereupon the livers and their partially purified primary hepatocytes were analyzed by RT-qPCR for the levels of Pcsk7 mRNA. […]
The reduction of LD accumulation in mice treated with GalNac-ASO-7 or GalNac-ASO-2 compared to α-tocopherol was next analyzed (FIG. 39A).

[3] = tested on: Pcsk7 mRNA; assay: Liver Pcsk7 mRNA after the recovery period following HFFC diet; format: in vivo, mouse; conditions: after 8 weeks recovery, 500 IU/kg of food
Protocol: The dose-dependent efficacy of these ASOs following their subcutaneous injection in mice was tested for the decrease in total liver Pcsk7 mRNA at 2, 5, 10 and 15 mg/kg, twice a week for 1 month. […] Mice were next injected with 5 mg/kg of either GalNac-ASO7 and GalNac-ASO-2, twice a week for 1 month, whereupon the livers and their partially purified primary hepatocytes were analyzed by RT-qPCR for the levels of Pcsk7 mRNA. […] A program was then set up whereby 8 weeks-old mice were fed a HFFC diet for 16 weeks, after which they were switched to a regular chow diet for another 8 weeks recovery period. The mice were divided into 3 groups of 12 mice each and treated as follows starting from the beginning of the recovery period (FIG. 38C): (1) a control non-treated group; (2) two GalNac-ASO groups subcutaneously injected twice a week for 8 weeks with either GalNac-ASO7 or GalNac-ASO2 at 5 mg/kg; (3) a group fed a chow diet containing Vitamin E (α-tocopherol) at 500 IU/kg of food.
The inventors next compared the levels of Pcsk7 mRNAs in the livers of mice after the 8 weeks recovery period that followed the 16-weeks HFFC diet.

[4] = target: T1, PC7 (Homo sapiens, UniProt Q16549); assay: s-apoB secretion in IHH cells overexpressing PC7, with pan-proprotein convertase inhibitor; format: cell-based; conditions: naive IHH cells overexpressing PC7 and s-apoB
T1 construct: expressed in transfected cells; host or cells: naïve IHH cells
T1 sequence (Q16549 142-785): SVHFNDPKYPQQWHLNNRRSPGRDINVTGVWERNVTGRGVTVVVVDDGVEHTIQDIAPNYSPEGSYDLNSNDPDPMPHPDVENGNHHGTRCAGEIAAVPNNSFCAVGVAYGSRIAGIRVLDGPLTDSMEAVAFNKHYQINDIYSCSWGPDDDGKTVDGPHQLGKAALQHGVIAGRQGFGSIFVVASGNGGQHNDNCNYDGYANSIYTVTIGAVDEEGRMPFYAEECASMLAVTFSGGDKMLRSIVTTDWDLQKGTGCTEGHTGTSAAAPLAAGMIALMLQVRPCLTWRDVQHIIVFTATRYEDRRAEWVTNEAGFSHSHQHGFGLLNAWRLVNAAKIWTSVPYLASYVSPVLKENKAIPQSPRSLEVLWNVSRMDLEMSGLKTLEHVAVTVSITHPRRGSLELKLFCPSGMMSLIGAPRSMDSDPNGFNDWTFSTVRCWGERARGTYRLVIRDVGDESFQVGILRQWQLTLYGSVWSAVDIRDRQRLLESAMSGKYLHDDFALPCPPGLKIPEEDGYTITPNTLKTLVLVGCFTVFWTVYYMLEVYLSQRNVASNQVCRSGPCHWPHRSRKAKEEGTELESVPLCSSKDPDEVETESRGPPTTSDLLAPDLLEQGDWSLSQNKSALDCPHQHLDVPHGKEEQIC
Protocol: FIGS. 7A-l: PCSK7 can bind apoB in the ER and acts as a molecular chaperone-like facilitating its secretion, and its absence leads to a rapid degradation of apoB by the proteasome. […] (FIG. 7A) Western blot (presented on gel and graphically) of apoB100 and PC7 protein levels in WT and PCSK7^−/− IHH cells. Levels are normalized to α-tubulin. (FIG. 7B) Western blot (presented on gel and graphically) of apoB100 and PC7 protein levels over time (0, 15 and 30 minutes) in WT and PCSK7^−/− IHH cells incubated with cycloheximide (CHX) to block de novo mRNA translation. Levels are normalized to α-tubulin. (FIG. 7C-D) Western blot (presented on gel and graphically) of cellular apoB levels in WT and PCSK7^−/− IHH cells incubated with brefeldin A (BFA) that blocks exit from the endoplasmic reticulum (ER), an autophagy inhibitor 3-methyladenine (3MA), proteasome inhibitors MG132, Lactacystin, DMSO or non treated (NT) controls. (FIG. 7E) Western blot (presented on gel) of cellular apoB levels and polyubiquitinated apoB100 in WT and PCSK7^−/− IHH cells incubated with Lactacystin. (FIG. 7F) Schematic representation of apoB100 and apoB21 protein. […]

Compound | accumulation of lipid droplets ([1]; 48 h with oleic acid, immunocytochemistry) | accumulation of fluorescent triglycerides in cells ([1]; FACS measurement of lipid droplets by LipidTox staining) | reduced total area, more abundant but smaller LDs, relative to GalNac-ASO7 [2] | increase in Pcsk7 mRNA levels [3] [%] | chaperone-like activity of PC7 on apoB (s-apoB secretion) [4]
Cc1c(C)c2c(c(C)c1O)CC[C@@](C)(CCC[C@H](C)CCC[C@H](C)CCCC(C)C)O2 [α-tocopherol] | significantly reduced | best reduction | significantly less | 33 | 
Decanoyl-RVKR-CH2Cl |  |  |  |  | did not block
